Results from patent publication US20220117890A1, “CANNABINOID EMULSIONS” (CORN PRODUCTS DEVELOPMENT, INC., priority 2020, published 2022).

How the values were obtained:
[1] = Plasma pharmacokinetics of CBD after single IV or oral administration; format: in vivo, male Sprague-Dawley rats; conditions: male, Sprague-Dawley, IV 2 mg/kg, rat
Description: Plasma pharmacokinetics following single intravenous cannabidiol (CBD solid) or oral administration (4 emulsions+1 non-emulsified oil) was investigated in male Sprague-Dawley rats. Rats were used for this study because they are an accepted model for characterization of pharmacokinetics of formulations being developed for humans. Twelve (12) single-catheterized rats (275-300 g, jugular vein catheter) were obtained from Envigo and divided into 6 groups of 2 animals each. Rats were acclimated for 5 days; the temperature was controlled from 68-79° F., the humidity was controlled from 20% to 70% and the light source was fluorescent lamps with a light/dark cycle of 12/12 hours on/off. No concurrent medication was administered during the study, and all rats had access (ad-libitum) to Tekland Rodent Chow 2018 (Envigo) and tap water throughout the live phase. All animals were randomly placed. Post acclimation, all animals received a single IV (tail vein injection) or oral treatment of one of the nanoemulsions, a non-emulsified oil, or a positive control based on Table 7. Group 1 animals received a single IV injection while Groups 2-6 received a single oral administration. The non-emulsified oil is CBD isolate dissolved in MCT oil. WFI=sterile water for injection. Dosing and dose volume are in […] (body weight) and mL/kg (body weight) respectively.
The CBD concentration in blood plasma samples obtained at various collection times (15, 30, 60, 120, 180, 240, 480 minutes and 24 hr) was determined.
The following pharmacokinetic parameters were determined: Bioavailability absolute (Fabs), Bioavailability relative to non-emulsified (Frel), the time at maximum concentration, the maximum concentration, and half-life (T1/2).

[2] = as above; format: in vivo, male Sprague-Dawley rats; conditions: male, Sprague-Dawley, IV 2 mg/kg, rat, read-out: Concentration (CBD in blood plasma)

With C=C(C)[C@@H]1CCC(C)=C[C@H]1c1c(O)cc(CCCCC)cc1O [CBD solid, cannabidiol] the AUC(0-inf) [1] was 2.01 µg·h/mL, the AUC(0-t) [1] was 1.98 µg·h/mL and the Cmax ([1]; read-out: Cmax (maximum concentration)) was 1.56 µg/mL. It also gave a Tmax ([1]; read-out: Tmax (time at maximum concentration)) of 15 min, a concentration at 30 min ([1]; time 30 min, read-out: Concentration (CBD in blood plasma)) of 0.481 µg/mL and a concentration at 60 min ([1]; time 60 min, read-out: Concentration (CBD in blood plasma)) of 0.341 µg/mL. For the same compound, the concentration at 120 min ([1]; time 120 min, read-out: Concentration (CBD in blood plasma)) was 0.178 µg/mL, the concentration at 180 min ([1]; time 180 min, read-out: Concentration (CBD in blood plasma)) was 0.0892 µg/mL and the concentration at 240 min ([1]; time 240 min, read-out: Concentration (CBD in blood plasma)) was 0.0442 µg/mL. The concentration at 480 min ([1]; time 480 min, read-out: Concentration (CBD in blood plasma)) was 0.0106 µg/mL, the concentration at 24 hr ([1]; time 24 hr, read-out: Concentration (CBD in blood plasma)) was 0.0052 µg/mL and the concentration at 5 min [2] was 1.56 µg/mL.
